Reference: ChEMBL document CHEMBL4420069, “Targeting capn9/capns2 activity as a therapeutic strategy for the treatment of myofibroblast differentiation and associated pathologies” (2018)
Each block holds one molecule with its values, some of them ahead of it. Calls of active or inactive are those of the source. The rule behind the calls is not given here. Where a SMILES comes first, the peptide text is derived from it. The star is where a group is joined. Cbz = O=C(OCc1ccccc1)*; CH2F = FC*

Legend:
[1] = target: T1, Calpain-9 (Homo sapiens, UniProt O14815); test: Inhibition of human recombinant mini-CAPN9 pre-incubated for 10 mins before calpain FRET peptide 5-FAM /QXL520 substrate addition by FLIPR assay
T1 sequence (O14815 whole entry): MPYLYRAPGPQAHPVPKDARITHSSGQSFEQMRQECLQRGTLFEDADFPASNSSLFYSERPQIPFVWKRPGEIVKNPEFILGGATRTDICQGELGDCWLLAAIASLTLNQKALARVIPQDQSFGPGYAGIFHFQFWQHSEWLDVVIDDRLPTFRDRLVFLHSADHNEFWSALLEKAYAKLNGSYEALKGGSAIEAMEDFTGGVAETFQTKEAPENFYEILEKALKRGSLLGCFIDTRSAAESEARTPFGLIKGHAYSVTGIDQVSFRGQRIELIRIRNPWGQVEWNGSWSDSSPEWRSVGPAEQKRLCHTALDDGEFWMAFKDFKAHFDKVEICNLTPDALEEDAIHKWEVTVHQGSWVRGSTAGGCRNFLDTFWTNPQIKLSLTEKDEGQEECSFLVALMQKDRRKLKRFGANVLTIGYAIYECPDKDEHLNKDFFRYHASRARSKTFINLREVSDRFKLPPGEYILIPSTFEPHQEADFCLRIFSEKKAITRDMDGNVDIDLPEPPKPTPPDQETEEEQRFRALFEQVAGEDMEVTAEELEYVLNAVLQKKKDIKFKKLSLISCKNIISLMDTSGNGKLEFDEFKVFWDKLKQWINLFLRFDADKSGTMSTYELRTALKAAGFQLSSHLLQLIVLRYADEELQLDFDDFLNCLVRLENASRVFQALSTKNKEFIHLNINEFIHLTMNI

[2] = organism: Mus musculus; test: Inhibition of TGFbeta receptor in mouse NMuMG cells assessed as suppression of TGFbeta1-induced EMT by measuring alpha-SMA expression at 1 to 10 uM incubated for 24 to 72 hrs by Western blot analysis; format: cell-based
[3] = organism: Mus musculus; test: Inhibition of TGFbeta receptor in mouse NMuMG cells assessed as suppression of TGFbeta1-induced SMAD2 phosphorylation at 1 to 10 uM incubated for 24 to 72 hrs by Western blot analysis; format: cell-based
[4] = organism: Mus musculus; test: Inhibition of TGFbeta receptor in mouse NMuMG cells assessed as suppression of TGFbeta1-induced calpain activity by measuring Filamin-A levels at 1 to 10 uM incubated for 24 to 72 hrs by Western blot analysis; format: cell-based
[5] = target: Mothers against decapentaplegic homolog 2 (Mus musculus) (UniProt Q62432); conditions: at 25 to 50 µM
Mothers against decapentaplegic homolog 2 (Mus musculus), sequence (Q62432 whole entry): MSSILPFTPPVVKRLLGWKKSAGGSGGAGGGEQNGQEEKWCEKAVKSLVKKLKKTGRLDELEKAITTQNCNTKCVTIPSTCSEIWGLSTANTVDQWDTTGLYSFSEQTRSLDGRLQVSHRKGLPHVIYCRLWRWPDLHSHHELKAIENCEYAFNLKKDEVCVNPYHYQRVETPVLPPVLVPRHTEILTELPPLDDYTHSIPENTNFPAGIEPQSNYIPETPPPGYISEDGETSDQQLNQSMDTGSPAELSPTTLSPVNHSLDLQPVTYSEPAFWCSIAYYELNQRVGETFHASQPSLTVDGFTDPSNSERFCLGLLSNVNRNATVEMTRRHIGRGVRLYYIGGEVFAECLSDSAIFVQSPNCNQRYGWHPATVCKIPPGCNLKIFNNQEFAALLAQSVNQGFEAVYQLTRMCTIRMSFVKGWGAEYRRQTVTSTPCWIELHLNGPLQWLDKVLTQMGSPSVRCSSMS
Description: Inhibition of TGFbeta1-induced SMAD2 phosphorylation in mouse NMuMG cells at 25 to 50 uM incubated for 24 to 72 hrs

[6] = organism: Mus musculus; test: Inhibition of calpain in mouse NMuMG cells assessed as suppression of TGFbeta1-induced EMT by measuring alpha-SMA expression at 25 to 50 uM incubated for 24 to 72 hrs by Western blot analysis; format: cell-based
[7] = organism: Mus musculus; test: Inhibition of calpain in mouse NMuMG cells assessed as suppression of TGFbeta1-induced calpain activity by measuring Filamin-A levels at 25 to 50 uM incubated for 24 to 72 hrs by Western blot analysis; format: cell-based
[8] = organism: Mus musculus; test: Inhibition of calpain in mouse NMuMG cells assessed as suppression of TGFbeta1-induced EMT by measuring alpha-SMA expression at 10 to 20 uM incubated for 48 to 72 hrs after 72 hrs pre-incubation with TGFbeta with continued presence of TGFbeta by Western blot analysis; format: cell-based
[9] = organism: Mus musculus; test: Inhibition of calpain in mouse NMuMG cells assessed as suppression of TGFbeta1-induced actin cytoskeleton reorganization at 10 to 20 uM; format: cell-based
[10] = target: Mothers against decapentaplegic homolog 2 (Mus musculus) (UniProt Q62432); test: Inhibition of TGFbeta1-induced SMAD2 phosphorylation in mouse NMuMG cells at 10 to 20 uM incubated for 24 to 72 hrs; format: cell-based
[11] = organism: Mus musculus; test: Inhibition of calpain in mouse NMuMG cells assessed as suppression of TGFbeta1-induced E-cadherin expression at 10 to 20 uM by immunofluorescence microscopy; format: cell-based
[12] = organism: Mus musculus; test: Inhibition of calpain in mouse NMuMG cells assessed as suppression of TGFbeta1-induced EMT by measuring vimentin expression at 10 to 20 uM incubated for 48 hrs; format: cell-based
[13] = system: MDCK; test: Inhibition of calpain in MDCK cells assessed as suppression of TGFbeta1-induced EMT by measuring alpha-SMA expression at 10 to 20 uM incubated for 24 to 72 hrs by Western blot analysis; format: cell-based; conditions: Canis lupus familiaris
[14] = organism: Mus musculus; test: Inhibition of calpain in mouse NMuMG cells assessed as suppression of TGFbeta1-induced EMT by measuring collagen 1A1 expression at 10 to 20 uM incubated for 48 hrs; format: cell-based
[15] = organism: Mus musculus; test: Inhibition of calpain in mouse NMuMG cells assessed as suppression of TGFbeta1-induced EMT by measuring MMP2 expression at 10 to 20 uM incubated for 48 hrs; format: cell-based
[16] = organism: Mus musculus; test: Inhibition of calpain in mouse NMuMG cells assessed as suppression of TGFbeta1-induced EMT by measuring MMP9 expression at 10 to 20 uM incubated for 48 hrs; format: cell-based
[17] = organism: Mus musculus; test: Inhibition of calpain in mouse NMuMG cells assessed as suppression of TGFbeta1-induced E-cadherin expression at 10 to 20 uM incubated for 48 to 72 hrs after 72 hrs pre-incubation with TGFbeta with continued presence of TGFbeta by immunofluorescence microscopy; format: cell-based
[18] = target: Calpain1/2 (Homo sapiens) (UniProt P17655+P07384); conditions: 10 to 20 uM
Description: Inhibition of calpain in NHLF assessed as inhibition of TGFB1-induced FMT by measuring alpha-SMA expression at 10 to 20 uM incubated for 24 hrs by Western blot analysis

[19] = organism: Mus musculus; test: Inhibition of calpain in mouse NMuMG cells assessed as suppression of TGFbeta1-induced EMT by measuring alpha-SMA expression at 10 to 20 uM incubated for 24 to 72 hrs by Western blot analysis; format: cell-based
[20] = organism: Mus musculus; test: Inhibition of calpain in mouse NMuMG cells assessed as suppression of TGFbeta1-induced actin cytoskeleton reorganization at 10 to 20 uM incubated for 48 to 72 hrs after 72 hrs pre-incubation with TGFbeta with continued presence of TGFbeta; format: cell-based
[21] = target: Transient receptor potential cation channel subfamily M member 7 (Mus musculus) (UniProt Q923J1); conditions: at 25 to 50 µM
Transient receptor potential cation channel subfamily M member 7 (Mus musculus), sequence (Q923J1 whole entry): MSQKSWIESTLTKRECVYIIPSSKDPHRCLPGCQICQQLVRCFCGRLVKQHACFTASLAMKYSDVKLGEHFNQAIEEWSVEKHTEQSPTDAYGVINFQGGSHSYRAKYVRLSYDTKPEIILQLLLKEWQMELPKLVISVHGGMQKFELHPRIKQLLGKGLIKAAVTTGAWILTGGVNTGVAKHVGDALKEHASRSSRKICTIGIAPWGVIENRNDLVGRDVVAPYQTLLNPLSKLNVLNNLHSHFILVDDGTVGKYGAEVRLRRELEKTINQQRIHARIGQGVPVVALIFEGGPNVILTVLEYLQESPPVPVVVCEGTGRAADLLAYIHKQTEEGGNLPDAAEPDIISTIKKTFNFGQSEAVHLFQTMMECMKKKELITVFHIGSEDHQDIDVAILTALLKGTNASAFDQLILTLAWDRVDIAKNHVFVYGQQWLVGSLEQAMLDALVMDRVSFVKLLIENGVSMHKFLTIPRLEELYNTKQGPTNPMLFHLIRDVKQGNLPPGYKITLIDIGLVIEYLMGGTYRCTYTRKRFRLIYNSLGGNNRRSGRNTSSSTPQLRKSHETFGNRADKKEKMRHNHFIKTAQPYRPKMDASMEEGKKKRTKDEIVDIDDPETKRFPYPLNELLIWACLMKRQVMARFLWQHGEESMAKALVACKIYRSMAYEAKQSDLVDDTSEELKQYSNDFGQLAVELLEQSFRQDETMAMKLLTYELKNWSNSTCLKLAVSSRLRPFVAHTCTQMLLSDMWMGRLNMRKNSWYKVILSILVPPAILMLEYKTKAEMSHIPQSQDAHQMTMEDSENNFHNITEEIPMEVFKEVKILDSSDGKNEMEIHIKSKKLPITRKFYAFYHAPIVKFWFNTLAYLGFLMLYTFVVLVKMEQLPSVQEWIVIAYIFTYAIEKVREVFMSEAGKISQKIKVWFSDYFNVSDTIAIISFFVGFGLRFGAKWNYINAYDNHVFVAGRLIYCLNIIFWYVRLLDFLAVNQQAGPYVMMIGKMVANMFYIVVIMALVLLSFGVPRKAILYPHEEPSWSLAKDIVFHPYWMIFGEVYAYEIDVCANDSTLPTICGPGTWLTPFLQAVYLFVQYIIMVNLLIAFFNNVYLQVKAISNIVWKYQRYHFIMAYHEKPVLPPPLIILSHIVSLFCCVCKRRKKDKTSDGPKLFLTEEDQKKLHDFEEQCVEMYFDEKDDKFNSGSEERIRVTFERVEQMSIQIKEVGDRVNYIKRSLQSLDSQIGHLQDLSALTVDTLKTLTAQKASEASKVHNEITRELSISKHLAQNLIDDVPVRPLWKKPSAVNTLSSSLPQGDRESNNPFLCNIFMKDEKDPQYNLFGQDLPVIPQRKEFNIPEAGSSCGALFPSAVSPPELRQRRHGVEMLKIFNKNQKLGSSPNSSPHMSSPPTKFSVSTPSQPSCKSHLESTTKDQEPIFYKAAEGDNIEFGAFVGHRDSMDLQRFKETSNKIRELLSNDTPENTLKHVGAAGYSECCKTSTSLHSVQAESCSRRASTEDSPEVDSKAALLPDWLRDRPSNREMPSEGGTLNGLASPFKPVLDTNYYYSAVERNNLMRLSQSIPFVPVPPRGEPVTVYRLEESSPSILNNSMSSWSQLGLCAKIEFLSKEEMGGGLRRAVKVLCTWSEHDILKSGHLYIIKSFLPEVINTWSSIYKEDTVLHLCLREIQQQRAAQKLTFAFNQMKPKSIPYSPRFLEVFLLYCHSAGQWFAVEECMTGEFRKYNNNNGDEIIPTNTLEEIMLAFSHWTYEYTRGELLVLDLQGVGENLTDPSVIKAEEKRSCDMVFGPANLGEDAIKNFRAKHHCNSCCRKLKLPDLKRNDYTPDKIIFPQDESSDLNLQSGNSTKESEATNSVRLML
Description: Inhibition of TRPM7 in mouse NMuMG cells assessed as suppression of TGFbeta1-induced calpain activity by measuring Filamin-A levels at 25 to 50 uM incubated for 24 to 72 hrs by Western blot analysis

[22] = target: Transient receptor potential cation channel subfamily M member 7 (Mus musculus) (UniProt Q923J1); conditions: at 25 to 50 µM; remark: listed apart in the source
Description: Inhibition of TRPM7 in mouse NMuMG cells assessed as suppression of TGFbeta1-induced EMT by measuring alpha-SMA expression at 25 to 50 uM incubated for 24 to 72 hrs by Western blot analysis

[23] = target: Transient receptor potential cation channel subfamily M member 7 (Homo sapiens) (UniProt Q96QT4); test: Inhibition of TRPM7 in NHLF assessed as inhibition of TGFB1-induced FMT by measuring alpha-SMA expression at 25 to 50 uM incubated for 24 hrs by Western blot analysis
Transient receptor potential cation channel subfamily M member 7 (Homo sapiens), sequence (Q96QT4 whole entry): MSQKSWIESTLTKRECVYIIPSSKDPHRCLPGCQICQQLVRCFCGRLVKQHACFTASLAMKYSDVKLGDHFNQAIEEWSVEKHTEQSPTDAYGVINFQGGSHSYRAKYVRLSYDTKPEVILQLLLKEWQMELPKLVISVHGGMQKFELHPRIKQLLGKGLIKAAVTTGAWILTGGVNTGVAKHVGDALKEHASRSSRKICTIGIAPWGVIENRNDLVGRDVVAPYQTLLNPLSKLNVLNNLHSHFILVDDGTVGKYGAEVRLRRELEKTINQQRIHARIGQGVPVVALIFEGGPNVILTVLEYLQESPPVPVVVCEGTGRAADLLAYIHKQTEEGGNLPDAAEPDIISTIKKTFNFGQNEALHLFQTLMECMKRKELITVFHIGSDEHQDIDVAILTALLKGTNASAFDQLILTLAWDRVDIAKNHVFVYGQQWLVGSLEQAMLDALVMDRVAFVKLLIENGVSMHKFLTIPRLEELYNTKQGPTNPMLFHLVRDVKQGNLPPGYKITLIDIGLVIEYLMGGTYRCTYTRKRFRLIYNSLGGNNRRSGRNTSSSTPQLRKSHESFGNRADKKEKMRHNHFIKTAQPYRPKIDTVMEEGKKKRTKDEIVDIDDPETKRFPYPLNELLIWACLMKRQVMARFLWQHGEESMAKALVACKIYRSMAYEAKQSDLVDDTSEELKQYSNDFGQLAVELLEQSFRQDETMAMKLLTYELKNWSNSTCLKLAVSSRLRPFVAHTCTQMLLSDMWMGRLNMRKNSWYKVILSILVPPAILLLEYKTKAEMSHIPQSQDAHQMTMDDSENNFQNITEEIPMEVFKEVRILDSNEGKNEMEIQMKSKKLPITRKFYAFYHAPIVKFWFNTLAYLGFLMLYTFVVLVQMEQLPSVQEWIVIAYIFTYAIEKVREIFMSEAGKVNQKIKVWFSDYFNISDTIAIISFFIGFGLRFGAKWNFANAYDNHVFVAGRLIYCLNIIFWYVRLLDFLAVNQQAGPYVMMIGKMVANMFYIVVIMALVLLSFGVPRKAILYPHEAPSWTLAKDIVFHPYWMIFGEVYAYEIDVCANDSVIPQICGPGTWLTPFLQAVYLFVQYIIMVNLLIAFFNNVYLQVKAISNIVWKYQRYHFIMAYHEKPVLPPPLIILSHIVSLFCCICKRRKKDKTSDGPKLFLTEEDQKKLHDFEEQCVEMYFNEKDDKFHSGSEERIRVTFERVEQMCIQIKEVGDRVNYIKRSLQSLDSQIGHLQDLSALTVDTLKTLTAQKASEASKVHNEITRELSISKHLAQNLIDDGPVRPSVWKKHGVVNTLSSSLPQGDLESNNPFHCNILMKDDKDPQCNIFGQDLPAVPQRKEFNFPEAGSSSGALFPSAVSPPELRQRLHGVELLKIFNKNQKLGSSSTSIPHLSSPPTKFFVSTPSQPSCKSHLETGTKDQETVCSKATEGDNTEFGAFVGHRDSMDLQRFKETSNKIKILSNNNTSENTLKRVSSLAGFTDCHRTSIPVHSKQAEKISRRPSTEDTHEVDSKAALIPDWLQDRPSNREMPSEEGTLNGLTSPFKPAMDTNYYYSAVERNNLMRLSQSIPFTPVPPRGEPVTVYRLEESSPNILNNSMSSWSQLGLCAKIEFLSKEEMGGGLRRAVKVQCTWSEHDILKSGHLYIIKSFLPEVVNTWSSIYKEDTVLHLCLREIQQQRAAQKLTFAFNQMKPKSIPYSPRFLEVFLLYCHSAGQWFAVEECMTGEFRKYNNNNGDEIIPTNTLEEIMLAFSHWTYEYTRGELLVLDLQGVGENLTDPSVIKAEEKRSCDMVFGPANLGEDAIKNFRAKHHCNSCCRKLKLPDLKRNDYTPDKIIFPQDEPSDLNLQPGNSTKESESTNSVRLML

[24] = target: Mothers against decapentaplegic homolog 2 (Mus musculus) (UniProt Q62432); test: Inhibition of TGFbeta1-induced SMAD2 phosphorylation in mouse NMuMG cells at 25 to 50 uM incubated for 72 hrs; format: cell-based
[25] = organism: Mus musculus; test: Inhibition of calcineurin in mouse NMuMG cells assessed as suppression of TGFbeta1-induced EMT by measuring alpha-SMA expression at 0.25 to 0.75 uM incubated for 72 hrs by Western blot analysis; format: cell-based

SMILES: NC(=O)c1ccc(-c2nc(-c3ccccn3)c(-c3ccc4c(c3)OCO4)[nH]2)cc1
inhibition [2]: Active | inhibition [3]: Active | inhibition [4]: Active

SMILES: CC(C)[C@H](NC(=O)OCc1ccccc1)C(=O)N[C@H](C=O)Cc1ccccc1 (Cbz-Val-Phe-aldehyde)
inhibition [8]: Active | inhibition [9]: Active | inhibition [10]: inactive | inhibition [11]: Active | inhibition [12]: Active | inhibition [13]: Active | inhibition [14]: Active | inhibition [15]: Active | inhibition [16]: Active | inhibition [17]: Active | inhibition [18]: Active | inhibition [19]: Active | inhibition [20]: Active

SMILES: C=CC[C@@H]1/C=C(\C)C[C@H](C)C[C@H](OC)[C@H]2O[C@@](O)(C(=O)C(=O)N3CCCC[C@H]3C(=O)O[C@H](/C(C)=C/[C@@H]3CC[C@@H](O)[C@H](OC)C3)[C@H](C)[C@@H](O)CC1=O)[C@H](C)C[C@@H]2OC
inhibition [25]: Active

The next lines start with results.

IC50 [1]: 100 µM
SMILES: COC(=O)C[C@H](NC(=O)[C@H](C)NC(=O)[C@@H](NC(=O)OCc1ccccc1)C(C)C)C(=O)CF (Cbz-Val-Ala-Asp(OMe)-CH2F)

inhibition [5]: inactive
SMILES: CCCC[C@@H](C=O)NC(=O)[C@H](CC(C)C)NC(=O)OCc1ccccc1
inhibition [6]: Active | inhibition [7]: Active

IC50 [1]: 100 µM
SMILES: C[C@H](NC(=O)[C@H](Cc1ccccc1)NC(=O)OCc1ccccc1)C(=O)CF

inhibition [5]: inactive | inhibition [21]: Active | inhibition [22]: Active
SMILES: NCCOB(c1ccccc1)c1ccccc1

inhibition [23]: Active | inhibition [21]: Active | inhibition [24]: inactive | inhibition [22]: Active
SMILES: c1ccc2c(c1)CCC[C@H]2Nc1nc2ccccc2[nH]1
